Results reported in patent US20100222349A1, “QUINOLINE DERIVATIVES USED TO TREAT INFLAMMATORY AND ALLERGIC DISEASES” (Glaxo Group Limited, priority 2007, published 2010).
One block for each compound: values may come before it.

What was measured:
human H1 receptor [1] = target: T1, human H1 receptor (Homo sapiens, UniProt P35367); test: Histamine H1 functional antagonist assay: determination of functional pKi values (FLIPR); format: cell-based; conditions: CHO cells expressing human H1 receptor, histamine at EC80, read-out: average pKi (pKb) at H1 (converted)
T1 construct: expressed in transfected cells
Summary of the method: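 CHO cells stably expressing human H1 receptor, loaded with Fluo-4 for 60 min, then preincubated with compound 30 min at 37° C in Tyrodes buffer with probenecid, pH 7.40. Histamine added at EC80; suppression of calcium fluorescence on FLIPR gives functional affinity from concentration-effect curves.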

human H1 receptor [2] = target: T1, human H1 receptor; test: Histamine H1 functional antagonist assay: determination of antagonist pA2 (FLIPR); format: cell-based; conditions: histamine H1 receptor expressing CHO cells, histamine concentration response curves
Description: (§1) The human H1 receptor is cloned using known procedures described in the literature [Biochem. Biophys. Res. Commun., 201(2):894 (1994)]. Chinese hamster ovary (CHO) cells stably expressing the human H1 receptor are generated according to known procedures described in the literature [Br. J. Pharmacol., 117(6):1071 (1996)].
The histamine H1 receptor expressing CHO cells are seeded into non-coated black-walled clear bottom 96-well tissue culture plates as described above.
Following overnight culture, growth medium is removed from each well, washed with 200 μl PBS and is replaced with 50 μl loading dye (250 μM Brilliant Black, 1 μM Fluo-4 diluted in Tyrodes buffer+probenecid (145 mM NaCl, 2.5 mM KCl, 10 mM HEPES, 10 mM D-glucose, 1.2 mM MgCl2, 1.5 mM CaCl2, 2.5 mM probenecid, pH adjusted to 7.40 with NaOH 1.0 M)). Cells are incubated for 45 min at 37° C. The loading buffer is removed and the cells are washed as above, and 90 μl of Tyrodes buffer+probenecid is added to each well. 10 μl of test compound, diluted to the required concentration in Tyrodes buffer+probenecid (or 10 μl Tyrodes buffer+probenecid as a control) is added to each well and the plate is incubated for 30 min at 37° C., 5% CO2.
The plates are then placed into a FLIPR™ (Molecular Devices, UK) to monitor cell fluorescence (λex=488 nm, λEM=540 nm) in the manner described in Sullivan et al., (In: Lambert DG (ed.), Calcium Signaling Protocols, New Jersey: Humana Press, 1999, 125-136) before and after the addition of 50 μl histamine over a concentration range of 1 mM-0.1 nM. The resultant concentration response curves are analysed by non-linear regression using a standard four parameter logistic equation to determine the histamine EC50, the concentration of histamine required to produce a response of 50% of the maximum response to histamine. The antagonist pA2 is calculated using the following standard equation: pA2=[…] where DR=dose ratio, defined as EC50antagonist-treated/EC50control and [B]=concentration of antagonist.

histamine H3 receptor = target: T2, histamine H3 receptor (Homo sapiens, UniProt Q9Y5N1); test: Histamine H3 functional antagonist assay (GTPγS, membranes); format: biochemical; conditions: CHO K1 membranes, [35S]-GTPγS, histamine at EC80; read-out: average pKi (pKb) at H3 (converted)
T2 construct: expressed in transfected cells; host or cells: CHO K1 cells with pSwitch/pGeneH3 (GeneSwitch, mifepristone-induced), clone 3H3; membrane preparation
Summary of the method: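 Membranes came from CHO K1 cells with mifepristone-inducible (10 nM, 18 h) human H3 receptor expression, clone 3H3. Test compounds in DMSO were combined with WGA polystyrene LeadSeeker SPA beads, membranes and GDP.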

human H1 receptor [3] = target: T1, human H1 receptor; test: Histamine H1 functional antagonist assay: antagonist duration; format: cell-based; conditions: at one or more time points, after washout
Description: as §1
To determine the antagonist duration, cells are cultured overnight in non-coated black-walled clear bottom 96-well tissue culture plates, are washed with PBS and are incubated with a concentration of antagonist chosen to give an approximate DR in the range 30-300. Following the 30 min antagonist incubation period, the cells are washed two or three times with 200 μl of PBS and then 100 μl Tyrodes buffer is added to each well to initiate antagonist dissociation. Following incubation for predetermined times, typically 30-270 min at 37° C., the cells are then washed again with 200 μl PBS and are incubated with 100 μl Tyrodes buffer containing Brilliant Black, probenecid and Fluo-4 for 45 min at 37° C., as described above. After this period, the cells are challenged with histamine in the FLIPR™ as described above. The dose ratio at each time point is used to determine the fractional H1 receptor occupancy by the following equation: fractional receptor occupancy=(DR-1)/DR. The decrease in receptor occupancy over time approximates to a straight line and is analysed by linear regression. The slope of this straight line fit is used as an index of the dissociation rate of the antagonist. The dose ratios for antagonist treated cells and for antagonist treated and washed cells at each time point are used to calculate a relative dose ratio (rel DR) which is also used as an index of antagonist duration. Antagonists with long duration of action produce rel DR values close to 1, and antagonists with short duration of action produce rel DR values that approaches the dose ratio value obtained for antagonist treatment alone.

T2 sequence (Q9Y5N1 whole entry, species assumed): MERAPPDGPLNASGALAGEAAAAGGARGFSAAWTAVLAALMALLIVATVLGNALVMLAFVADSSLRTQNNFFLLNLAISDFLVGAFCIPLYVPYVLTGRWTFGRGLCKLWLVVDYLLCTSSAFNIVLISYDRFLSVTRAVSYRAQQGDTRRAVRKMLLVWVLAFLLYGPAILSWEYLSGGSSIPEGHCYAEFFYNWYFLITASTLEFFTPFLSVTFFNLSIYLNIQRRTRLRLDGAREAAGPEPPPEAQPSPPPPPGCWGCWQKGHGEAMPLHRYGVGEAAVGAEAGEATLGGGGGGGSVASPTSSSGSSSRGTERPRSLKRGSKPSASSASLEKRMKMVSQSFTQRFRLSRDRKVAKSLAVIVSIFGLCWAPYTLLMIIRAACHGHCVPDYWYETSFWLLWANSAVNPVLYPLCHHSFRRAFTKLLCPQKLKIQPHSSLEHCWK
T1 sequence (P35367 whole entry): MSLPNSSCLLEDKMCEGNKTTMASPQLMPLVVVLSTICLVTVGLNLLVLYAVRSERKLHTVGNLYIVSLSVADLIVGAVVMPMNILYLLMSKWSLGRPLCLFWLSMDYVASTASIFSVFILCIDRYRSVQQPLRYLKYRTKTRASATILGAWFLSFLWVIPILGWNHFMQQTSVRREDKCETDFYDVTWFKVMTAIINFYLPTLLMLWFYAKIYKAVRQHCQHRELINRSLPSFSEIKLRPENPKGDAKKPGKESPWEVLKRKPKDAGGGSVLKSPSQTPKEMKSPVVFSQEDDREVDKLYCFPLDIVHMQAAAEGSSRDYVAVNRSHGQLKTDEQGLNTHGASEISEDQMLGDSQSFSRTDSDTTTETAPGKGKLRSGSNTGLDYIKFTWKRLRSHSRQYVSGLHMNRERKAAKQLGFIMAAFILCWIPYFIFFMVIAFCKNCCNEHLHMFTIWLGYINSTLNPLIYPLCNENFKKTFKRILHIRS

Compound: CCCCc1cc(OC2CCN(CCCC(=O)NCCOC)CC2)c2ncccc2c1 [Example 23, 4-{4-[(6-butyl-8-quinolinyl)oxy]-1-piperidinyl}-N-[2-(methyloxy)ethyl] butanamide]
Ki (human H1 receptor [1]): < 10 nM | Ki (histamine H3 receptor): > 3160 nM

Compound: CCCCc1cc(OC2CCN(CCCCNC(C)=O)CC2)c2ncccc2c1 [Example 79, N-(4-{4-[(6-Butyl-8-quinolinyl)oxy]-1-piperidinyl}butyl)acetamide]
Ki (human H1 receptor [1]): < 10 nM | Ki (histamine H3 receptor): > 316 nM

Compound: CCCCc1cc(OC2CCN(CCNC(=O)C(C)C)CC2)c2ncccc2c1 [Example 71, N-(2-{4-[(6-butyl-8-quinolinyl)oxy]-1-piperidinyl}ethyl)-2-methylpropanamide]
Ki (human H1 receptor [1]): < 10 nM | Ki (histamine H3 receptor): > 316 nM

Compound: CCCCc1cc(OC2CCN(CC3CCN(C(=O)CC)CC3)CC2)c2ncccc2c1 [Example 2, 6-Butyl-8-({1-[(1-propanoyl-4-piperidinyl)methyl]-4-piperidinyl}oxy)quinoline]
Ki (human H1 receptor [1]): < 100 nM | Ki (histamine H3 receptor): > 316 nM

Compound: CCCCc1cc(OC2CCN(CCCNC(=O)C(C)C)CC2)c2ncccc2c1 [Example 68, N-(3-{4-[(6-butyl-8-quinolinyl)oxy]-1-piperidinyl}propyl)-2-methyl propanamide]
Ki (human H1 receptor [1]): < 10 nM | Ki (histamine H3 receptor): > 316 nM

Compound: CCCCc1cc(O[C@@H]2CCN(CCCC(=O)N3CCCCC3)C2)c2ncccc2c1 [Example 34, 6-butyl-8-({(3R)-1-[4-oxo-4-(1-piperidinyl)butyl]-3-pyrrolidinyl}oxy)quinoline]
Ki (human H1 receptor [1]): < 10 nM | Ki (histamine H3 receptor): > 316 nM

Compound: CCCCc1cc(OC2CCN(CCCNC(=O)CCCOC)CC2)c2ncccc2c1 [Example 83, N-(3-{4-[(6-butyl-8-quinolinyl)oxy]-1-piperidinyl}propyl)-4-(methyloxy) butanamide]
Ki (human H1 receptor [1]): < 100 nM | Ki (histamine H3 receptor): > 316 nM

Compound: CCCCc1cc(OC2CCN(CCNC(=O)C(C)(C)C)CC2)c2ncccc2c1 [Example 72, N-(2-{4-[(6-butyl-8-quinolinyl)oxy]-1-piperidinyl}ethyl)-2,2-dimethyl propanamide]
Ki (human H1 receptor [1]): < 10 nM | duration of action compared with azelastine (human H1 receptor [3]): longer duration of action than azelastine | Ki (histamine H3 receptor): > 316 nM

Compound: CCCCc1cc(OC2CCN(C[C@H]3CC[C@H](C(=O)NCCC(C)C)CC3)CC2)c2ncccc2c1 [Example 61, trans-4-({4-[(6-butyl-8-quinolinyl)oxy]-1-piperidinyl}methyl)-N-(3-methylbutyl) cyclohexane carboxamide]
Ki (human H1 receptor [1]): < 10 nM | Ki (histamine H3 receptor): > 316 nM

Compound: CCCCc1cc(OC2CCN(CC(=O)NC(C)C)CC2)c2ncccc2c1 [Example 14, 2-{4-[(6-butyl-8-quinolinyl)oxy]-1-piperidinyl}-N-(1-methylethyl)acetamide]
Ki (human H1 receptor [1]): < 100 nM | Ki (histamine H3 receptor): > 3160 nM

Compound: CCCCc1cc(OC2CCN(CCNC(=O)CCCOC)CC2)c2ncccc2c1 [Example 81, N-(2-{4-[(6-butyl-8-quinolinyl)oxy]-1-piperidinyl}ethyl)-4-(methyloxy) butanamide]
Ki (human H1 receptor [1]): < 10 nM | Ki (histamine H3 receptor): > 316 nM

Compound: CCCCc1cc(OC2CCN(C[C@H]3CC[C@H](C(=O)NCC(C)(C)C)CC3)CC2)c2ncccc2c1 [Example 46, trans-4-({4-[(6-butyl-8-quinolinyl)oxy]-1-piperidinyl}methyl)-N-(2,2-dimethylpropyl) cyclohexane carboxamide]
Ki (human H1 receptor [1]): < 100 nM | Ki (histamine H3 receptor): > 316 nM

Compound: CCCCc1cc(OC2CCN(CCCCNC(=O)CCCOC)CC2)c2ncccc2c1 [Example 84, N-(4-{4-[(6-butyl-8-quinolinyl)oxy]-1-piperidinyl}butyl)-4-(methyloxy) butanamide]
Ki (human H1 receptor [1]): < 10 nM | Ki (histamine H3 receptor): > 316 nM

Compound: CCCCc1cc(OC2CCN(C[C@H]3CC[C@H](C(=O)N4CCOCC4)CC3)CC2)c2ncccc2c1 [Example 63, 6-butyl-8-[(1-{[trans-4-(4-morpholinylcarbonyl)cyclohexyl]methyl}-4-piperidinyl)oxy]quinoline]
Ki (human H1 receptor [1]): < 100 nM | Ki (histamine H3 receptor): > 316 nM

Compound: CCCCCc1cc(OC2CCN(CCCNC(=O)C(C)(C)C)CC2)c2ncccc2c1 [Example 91, 2,2-Dimethyl-N-(3-{4-[(6-pentyl-8-quinolinyl)oxy]-1-piperidinyl}propyl) propanamide]
Ki (human H1 receptor [1]): < 10 nM | Ki (histamine H3 receptor): > 316 nM

Continued, in another order:

Ki (human H1 receptor [1]): < 100 nM | Kb (human H1 receptor [2]): < 100 nM | Ki (histamine H3 receptor): > 316 nM
Compound: CCCCc1cc(O[C@H]2CCN(CCCC(=O)NC(C)(C)C)C2)c2ncccc2c1 [Example 41, 4-{(3S)-3-[(6-butyl-8-quinolinyl)oxy]-1-pyrrolidinyl}-N-(1,1-dimethylethyl) butanamide]

Ki (human H1 receptor [1]): ~1000 nM | Kb (human H1 receptor [2]): < 100 nM | Ki (histamine H3 receptor): > 316 nM
Compound: CCCCc1cc(O[C@H]2CCN(CCC(=O)N(CC)CC)C2)c2ncccc2c1 [Example 40, 3-{(3S)-3-[(6-butyl-8-quinolinyl)oxy]-1-pyrrolidinyl}-N,N-diethylpropanamide]

Ki (human H1 receptor [1]): ~1000 nM | Kb (human H1 receptor [2]): < 100 nM | Ki (histamine H3 receptor): ~100 nM
Compound: CCCCc1cc(O[C@H]2CCN(CCC(=O)N3CCCCC3)C2)c2ncccc2c1 [Example 38, 6-butyl-8-({(3S)-1-[3-oxo-3-(1-piperidinyl)propyl]-3-pyrrolidinyl}oxy)quinoline]

Ki (human H1 receptor [1]): < 10 nM | Ki (histamine H3 receptor): > 316 nM
Compound: CCCCc1cc(OC2CCN(C[C@H]3CC[C@H](C(=O)N(CC)CC)CC3)CC2)c2ncccc2c1 [Example 43, Trans-4-({4-[(6-butyl-8-quinolinyl)oxy]-1-piperidinyl}methyl)-N,N-diethylcyclohexane carboxamide]
duration of action compared with azelastine (human H1 receptor [3]): longer duration of action than azelastine

Ki (human H1 receptor [1]): < 10 nM | Ki (histamine H3 receptor): > 3160 nM
Compound: CCCCc1cc(OC2CCN(CCCCC(=O)N(CC)CC)CC2)c2ncccc2c1 [Example 27, 5-{4-[(6-butyl-8-quinolinyl)oxy]-1-piperidinyl}-N,N-diethylpentanamide]

Ki (human H1 receptor [1]): < 10 nM | Ki (histamine H3 receptor): > 3160 nM
Compound: CCCCc1cc(OC2CCN(CCC(=O)NC(C)(C)C)CC2)c2ncccc2c1 [Example 17, 3-{4-[(6-butyl-8-quinolinyl)oxy]-1-piperidinyl}-N-(1,1-dimethylethyl) propanamide]

Ki (human H1 receptor [1]): < 100 nM | Ki (histamine H3 receptor): > 3160 nM
Compound: CCCCc1cc(OC2CCN(CC(=O)N(CC)CC)CC2)c2ncccc2c1 [Example 9, 2-{4-[(6-butyl-8-quinolinyl)oxy]-1-piperidinyl}-N,N-diethylacetamide]

Ki (human H1 receptor [1]): < 100 nM | Ki (histamine H3 receptor): > 3160 nM
Compound: CCCCc1cc(OC2CCN(CCCCC(=O)NC(C)(C)C)CC2)c2ncccc2c1 [Example 30, 5-{4-[(6-butyl-8-quinolinyl)oxy]-1-piperidinyl}-N-(1,1-dimethylethyl) pentanamide]

Ki (human H1 receptor [1]): < 10 nM | Ki (histamine H3 receptor): > 316 nM
Compound: CCCCc1cc(OC2CCN(CCCNC(=O)CCC)CC2)c2ncccc2c1 [Example 70, N-(3-{4-[(6-butyl-8-quinolinyl)oxy]-1-piperidinyl}propyl) butanamide]
